pEC50: −log10 of the molar value. Where two headings read alike, the source gives them in different places.

Common to all, as to type: cell-based
For assay [1], the system named is HCV 1a RLuc cells (dicistronic genotype 1a H77 replicon, RLuc reporter). Briefly: microbe, parasite or virus in culture. The following applies: Hepatitis C virus, read-out: 1a. The procedure, abridged: (§1)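 Renilla luciferase HCV replicon cells: dicistronic 1b Con1, 1a H77 or 2a JFH-1 replicons, or a JFH-1 chimera carrying J6 NS5A (M31 present). Compound in DMSO serial dilutions, 72 h incubation, then lysis and luciferase read. EC50 by non-linear regression.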

For assay [2], the system named is HCV 1b RLuc cells (dicistronic genotype 1b Con1 replicon, RLuc reporter). In words: microbe, parasite or virus in culture. To be noted: Hepatitis C virus, read-out: 1b (nM). Summed up:
as §1

For assay [3], the system named is HCV 2a JFH-1 Rluc cells (dicistronic genotype 2a JFH-1 replicon, RLuc reporter). Briefly: microbe, parasite or virus in culture. To be noted: Hepatitis C virus, read-out: 2a JFH. Summed up:
as §1

Assay [4] has as its system HCV 2b Rluc cells (NS5A chimeric genotype 2a JFH-1 replicon with genotype 2b MD2b-1 NS5A gene, M31 present). In words: microbe, parasite or virus in culture. The following applies: Hepatitis C virus, read-out: 2b. Summed up: (§2)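 Replicon cells stably carrying the listed RLuc-encoding dicistronic replicons were seeded and treated with DMSO serial dilutions of compound (10 mM stocks) diluted into culture medium. After 72 h, cells were lysed and Renilla luciferase activity measured. EC50 was derived by non-linear regression.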

Assay [5] deals with HCV 3a RLuc cells (NS5A chimeric genotype 1b Con1 replicon with consensus genotype 3a NS5A gene). In words: microbe, parasite or virus in culture. To be noted: Hepatitis C virus. Summed up: as §2
For assay [6], the system named is HCV 4a Rluc cells (NS5A chimeric genotype 1b Con1 replicon with genotype 4a NS5A gene). In words: microbe, parasite or virus in culture. To be noted: Hepatitis C virus, read-out: 4a. The procedure, abridged:
as §2

Assay [7] has as its system HCV 2a Rluc cells (NS5A chimeric genotype 2a JFH-1 replicon with genotype 2a J6 strain NS5A gene, M31 present). Briefly: HCV replicon reporter assay, genotype 2a J6 (M31 present). To be noted: Hepatitis C virus, read-out: 2a J6. The procedure, abridged: as §1
A general note: A replicon is a self-replicating genome or part of one, used to study replication in cells.

Where [8] appears, read: read-out: 3a, genotype 3a replicon.
Setting [9] is: genotype 2a JFH-1 RLuc replicon.
The mark [10] stands for this setting: read-out: 3a, genotype 3a NS5A chimeric replicon.

Turning to `COC(=O)N[C@H](C(=O)N1[C@@H]2CC[C@@H](C2)[C@H]1c1nc2ccc3cc(-c4ccc5c(ccc6nc([C@@H]7CCCN7C(=O)[C@H](NC(=O)C(C)(C)O)c7ccccc7)[nH]c65)c4)ccc3c2[nH]1)C(C)C` [Example 357], the pEC50 in assay [1] (genotype 1a replicon), in assay [3] (genotype 2a JFH-1 replicon), in assay [4], in assay [5] (setting [8]), in assay [6] and in assay [7] was 9.00 to 12.00 in each case. The EC50 in assay [2] worked out at 0.044 nM.
For the compound `CC(C)COC(=O)N[C@@H](C(=O)N1CCC[C@H]1c1ncc(-c2cc3c4c(c2)OCc2cc(-c5cnc([C@@H]6CCCN6C(=O)[C@H](NC(=O)OCC(C)C)c6ccccc6)[nH]5)cc(c2-4)OC3)[nH]1)c1ccccc1` [Example 487], the pEC50 is 9.00 to 12.00 in assay [1] (genotype 1a replicon); 9.00 to 12.00 in assay [3] (genotype 2a JFH-1 replicon); 7.36 to 9.00 in assay [4]; 9.00 to 12.00 in assay [5] (setting [8]); 9.00 to 12.00 in assay [6]; less than 7.36 in assay [7]. Besides, the EC50 in assay [2] came out at 0.027 nM.
Take `O=C(N[C@@H](C(=O)N1CCC[C@H]1c1ncc(-c2cc3c4c(c2)OCc2cc(-c5cnc([C@@H]6CCCN6C(=O)[C@H](NC(=O)c6ccncn6)c6ccccc6)[nH]5)cc(c2-4)OC3)[nH]1)c1ccccc1)c1ccncn1` [Example 491]: the pEC50 in assay [1] (genotype 1a H77 RLuc replicon), in assay [3] (setting [9]), in assay [4], in assay [5] (setting [10]), in assay [6] and in assay [7] was 9.00 to 12.00 each time. Also, the EC50 in assay [2] is 0.066 nM.
Take `O=C(N[C@@H](C(=O)N1CCC[C@H]1c1ncc(-c2cc3c4c(c2)OCc2cc(-c5cnc([C@@H]6CCCN6C(=O)[C@H](NC(=O)C6CCC6)c6ccccc6)[nH]5)cc(c2-4)OC3)[nH]1)c1ccccc1)C1CCC1` [Example 449]: the pEC50 in assay [1] (genotype 1a replicon), in assay [3] (genotype 2a JFH-1 replicon), in assay [4], in assay [5] (setting [8]), in assay [6] and in assay [7] was 9.00 to 12.00 each time. The EC50 in assay [2] was found to be 0.139 nM.
For `COCCOC(=O)N[C@@H](C(=O)N1CCC[C@H]1c1ncc(-c2cc3c4c(c2)OCc2cc(-c5cnc([C@@H]6CCCN6C(=O)[C@H](NC(=O)OCCOC)c6ccccc6)[nH]5)cc(c2-4)OC3)[nH]1)c1ccccc1` [Example 448], the pEC50 in assay [1] (genotype 1a replicon) was 9.00 to 12.00; in assay [3] (genotype 2a JFH-1 replicon), 9.00 to 12.00; in assay [4] it was 9.00 to 12.00; in assay [5] (setting [8]), 9.00 to 12.00; in assay [6], 9.00 to 12.00; in assay [7], 7.36 to 9.00. In assay [2], the EC50 came out at 0.459 nM.
Consider `COC(=O)N[C@H](C(=O)N1CCC[C@H]1c1ncc(-c2ccc3c4c(ccc3c2)-c2ccc(-c3cnc([C@@H]5CCCN5C(=O)[C@H](NC(=O)OC)c5ccccc5)[nH]3)cc2CO4)[nH]1)[C@@H](C)OC` [Example 16], for which the pEC50 in assay [1] (72 h, Table 1, genotype 1a H77 replicon, 72 hours) was 9.00 to 12.00; in assay [3] (72 h, Table 1, genotype 2a JFH-1 replicon, 72 hours), 9.00 to 12.00; in assay [4], 7.36 to 9.00; in assay [5] (read-out: 3a, Table 1, genotype 3a NS5A chimeric replicon), 9.00 to 12.00; in assay [6], 9.00 to 12.00; in assay [7], 7.36 to 9.00. In addition, in assay [2] (72 h), the EC50 was determined as 0.011 nM.
For the compound `COC(=O)N[C@H](C(=O)N1CCC[C@H]1c1ncc(-c2ccc3cc(-c4ccc(-c5cnc([C@@H]6CC(F)(F)CN6C(=O)[C@H](NC(=O)OC)c6ccccc6)[nH]5)cc4)ccc3c2)[nH]1)C(C)C` [Example 260], the pEC50 in assay [1] (genotype 1a H77 replicon, RLuc reporter) is 9.00 to 12.00; in assay [3] (genotype 2a JFH-1 replicon, RLuc reporter), 9.00 to 12.00; in assay [4] it was less than 7.36; in assay [5] (read-out: 3a, genotype 3a NS5A chimeric 1b Con1 replicon), 9.00 to 12.00; in assay [6], 9.00 to 12.00; in assay [7] it was less than 7.36. Also, the EC50 in assay [2] amounted to 0.004 nM.
With `COC(=O)N[C@H](C(=O)N1CCC[C@H]1c1nc2ccc3cc(-c4ccc5c(ccc6nc([C@@H]7[C@H]8CC[C@H](C8)N7C(=O)[C@@H](NC(=O)OC)C7CCOCC7)[nH]c65)c4)ccc3c2[nH]1)C(C)C` [Example 95], the pEC50 in assay [1] (72 h, Table 2, genotype 1a H77 replicon, 72 hours) is 9.00 to 12.00; in assay [3] (72 h, Table 2, genotype 2a JFH-1 replicon, 72 hours), 9.00 to 12.00; in assay [4], 7.36 to 9.00; in assay [5] (read-out: 3a, Table 2, genotype 3a NS5A chimeric replicon), 9.00 to 12.00; in assay [6] it was 9.00 to 12.00; in assay [7] it was 9.00 to 12.00. Moreover, the EC50 in assay [2] (72 h) came to 0.028 nM.
Take `COC(=O)N[C@H](C(=O)N1CCC[C@H]1c1nc(Cl)c(-c2ccc(-c3ccc4c(ccc5nc([C@@H]6[C@H]7CC[C@H](C7)N6C(=O)[C@@H](NC(=O)OC)C(C)C)[nH]c54)c3)cc2)[nH]1)C(C)C` [Example 386]: the pEC50 was 9.00 to 12.00 in assay [1] (genotype 1a replicon); 9.00 to 12.00 in assay [3] (genotype 2a JFH-1 replicon); less than 7.36 in assay [4]; 9.00 to 12.00 in assay [5] (setting [8]); 9.00 to 12.00 in assay [6]; less than 7.36 in assay [7]. For the same compound, the EC50 in assay [2] was 0.015 nM.
Turning to `COC(=O)N[C@H](C(=O)N1CCC[C@H]1c1nc2ccc3cc(-c4ccc(-c5[nH]c([C@@H]6[C@H]7CC[C@H](C7)N6C(=O)[C@@H](NC(=O)OC)C(C)C)nc5Cl)cc4)ccc3c2[nH]1)C(C)C` [Example 388], the pEC50 in assay [1] (genotype 1a replicon) was 9.00 to 12.00; in assay [3] (genotype 2a JFH-1 replicon), 9.00 to 12.00; in assay [4], less than 7.36; in assay [5] (setting [8]) it was 9.00 to 12.00; in assay [6], 9.00 to 12.00; in assay [7] it was less than 7.36. The EC50 in assay [2] came out at 0.008 nM.
For the compound `COC[C@H]1C[C@@H](c2nc3ccc4cc(-c5ccc6c(ccc7nc([C@@H]8CCCN8C(=O)[C@H](NC(=O)C8CC8)c8ccccc8)[nH]c76)c5)ccc4c3[nH]2)N(C(=O)[C@@H](NC(=O)OC)C(C)C)C1` [Example 512], the pEC50 in assay [1] (genotype 1a H77 RLuc replicon), in assay [3] (setting [9]), in assay [4], in assay [5] (setting [10]), in assay [6] and in assay [7] was 9.00 to 12.00 each time. In addition, the EC50 in assay [2] worked out at 0.035 nM.
Consider `COC(=O)N[C@H](C(=O)N1CCC[C@H]1c1nc(Br)c(-c2cc3c4c(c2)OCc2cc(-c5[nH]c([C@@H]6CCCN6C(=O)[C@@H](NC(=O)OC)C(C)C)nc5Br)cc(c2-4)OC3)[nH]1)C(C)C` [Example 473], for which the pEC50 is 9.00 to 12.00 in assay [1] (genotype 1a replicon); 9.00 to 12.00 in assay [3] (genotype 2a JFH-1 replicon); 7.36 to 9.00 in assay [4]; 9.00 to 12.00 in assay [5] (setting [8]); 9.00 to 12.00 in assay [6]; 7.36 to 9.00 in assay [7]. Also, the EC50 in assay [2] stood at 0.015 nM.
Take `COC[C@H]1C[C@@H](c2nc3ccc4cc(-c5ccc6c(ccc7nc([C@@H]8C[C@H]9C[C@H]9N8C(=O)[C@@H](NC(=O)OC)C(C)C)[nH]c76)c5)ccc4c3[nH]2)N(C(=O)[C@H](NC(=O)OC(C)(C)C)c2ccccc2)C1` [Example 497]: the pEC50 in assay [1] (genotype 1a H77 RLuc replicon), in assay [3] (setting [9]), in assay [4], in assay [5] (setting [10]), in assay [6] and in assay [7] was 9.00 to 12.00 each time. Also, in assay [2], the EC50 amounted to 0.008 nM.
With `CC(C)C(=O)N[C@@H](C(=O)N1CCC[C@H]1c1ncc(-c2cc3c4c(c2)OCc2cc(-c5cnc([C@@H]6CCCN6C(=O)[C@H](NC(=O)C(C)C)c6ccccc6)[nH]5)cc(c2-4)OC3)[nH]1)c1ccccc1` [Example 468], the pEC50 in assay [1] (genotype 1a replicon), in assay [3] (genotype 2a JFH-1 replicon), in assay [4], in assay [5] (setting [8]), in assay [6] and in assay [7] was 9.00 to 12.00 in each case. Besides, in assay [2], the EC50 stood at 0.113 nM.
With `COC(=O)N[C@H](C(=O)N1[C@@H]2CC[C@@H](C2)[C@H]1c1nc2ccc3cc(-c4ccc5c(ccc6nc([C@@H]7CCCN7C(=O)[C@H](NC(=O)OC)c7ccccc7)[nH]c65)c4)ccc3c2[nH]1)C(C)C` [Example 314], the pEC50 in assay [1] (genotype 1a replicon), in assay [3] (genotype 2a JFH-1 replicon), in assay [4], in assay [5] (setting [8]), in assay [6] and in assay [7] was 9.00 to 12.00 in each case. Also, the EC50 in assay [2] came to 0.026 nM.
In the case of `COCCC(=O)N[C@@H](C(=O)N1CCC[C@H]1c1ncc(-c2cc3c4c(c2)OCc2cc(-c5cnc([C@@H]6CCCN6C(=O)[C@H](NC(=O)CCOC)c6ccccc6)[nH]5)cc(c2-4)OC3)[nH]1)c1ccccc1` [Example 480], the pEC50 in assay [1] (genotype 1a replicon) is 9.00 to 12.00; in assay [3] (genotype 2a JFH-1 replicon), 9.00 to 12.00; in assay [4], 9.00 to 12.00; in assay [5] (setting [8]), 9.00 to 12.00; in assay [6] it was 9.00 to 12.00; in assay [7], 7.36 to 9.00. For the same compound, the EC50 in assay [2] turned out to be 0.684 nM.
